These results are taken from the supplement of paper PMC11061612.

The structures appear in SMILES notation.

Test in all cases: combination Emax (second highest fraction inhibited in the dose matrix, 72 h); higher = more inhibition; extreme values may be limits of the assay
Experiment [1] has as its system BFTC-905 (Bladder Carcinoma). In outline: (§1)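 Bliss excess equals the observed combination effect minus the expected value EA + EB − EA·EB, where EA and EB are the effects of each agent alone. Combination Emax is the second-highest inhibition within the matrix. Inhibition was scaled from CellTiter-Glo 2.0 luminescence, with 0 set by vehicle wells and 1 by blank wells, after 72 hours of two-drug dosing of cells plated in 1536-well plates.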

For experiment [2], the system named is BL-41 (Burkitt's Lymphoma). In outline: as §1
Experiment [3] relates to CAMA-1 (Breast Carcinoma). In outline: as §1
In experiment [4] the test system is CHP-212 (Neuroblastoma). In a few lines:
as §1

Experiment [5] concerns COLO-678 (Colorectal Carcinoma). In outline:
as §1

The test system of experiment [6] is DND-41 (T-Lymphoblastic Leukemia). In a few lines:
as §1

The test system of experiment [7] is EVSA-T (Breast Carcinoma). In a few lines:
as §1

For experiment [8], the system named is HDQ-P1 (Breast Carcinoma). In a few lines:
as §1

Experiment [9] concerns K-562 (Chronic Myelogenous Leukemia). In outline: as §1
For experiment [10], the system named is KCL-22 (Chronic Myelogenous Leukemia). In outline: as §1
The test system of experiment [11] is KM12 (Colorectal Carcinoma). In a few lines:
as §1

Experiment [12] relates to KYSE-180 (Esophageal Squamous Cell Carcinoma). In a few lines: as §1
The test system of experiment [13] is MKN28 (Gastric Carcinoma). In outline: as §1
Experiment [14] relates to NCI-H1792 (Lung Adenocarcinoma). In outline:
as §1

Experiment [15] deals with NCI-H2818 (Mesothelioma). In a few lines: as §1
For experiment [16], the system named is PANC-08-13 (Pancreatic Carcinoma). In a few lines:
as §1

Experiment [17] relates to U251 (Low Grade Glioma). In a few lines: as §1
Experiment [18] has as its system WIL2-NS (Non-Cancerous). In a few lines: as §1
Experiment [19] has as its system WM-115 (Melanoma). In outline:
as §1

For `COc1cc2c(cc1OCCCCCOc1cc3c(cc1OC)C(=O)N1C=C(C)C[C@H]1C=N3)N=C[C@@H]1CC(C)=CN1C2=O` [SG3199] + O=C(c1cc(Cc2n[nH]c(=O)c3ccccc23)ccc1F)N1CCN(C(=O)C2CC2)CC1 [Olaparib] (first compound max 0.001 µM, 7x7, partner max 10 µM), the “combination Emax” value in experiment [1] came out at 0.152; in experiment [2] it was 0.107; in experiment [3], 0.109; in [4], 0.384; in experiment [5] it was 0.13; in experiment [6], 0.216. Moreover, the “combination Emax” value stood at 0.276 in experiment [7]; 0.153 in experiment [8]; 0.134 in experiment [9]; 0.176 in experiment [10]; 0.113 in experiment [11]; 0.0586 in experiment [12]. Besides, the “combination Emax” value in experiment [13] was 0.0709; in experiment [14], 0.144; in experiment [15], 0.161; in [16] it was 0.101; in [17], 0.183; in [18], 0.247. The “combination Emax” value in experiment [19] stood at 0.206.

Take `CN(C)CCCOc1ccc(-c2ccc3ncc4c(c3c2)n(C2CCOCC2)c(=O)n4C)cn1` [AZD0156] + CCN(CCO)CCCOc1ccc2c(Nc3cc(CC(=O)Nc4cccc(F)c4)[nH]n3)ncnc2c1 [AZD2811] (first compound max 1 µM, 7x7, partner max 1 µM): the “combination Emax” value in experiment [1] is 0.428; in [2], 0.744; in experiment [3], 0.14; in [4] it was 0.803; in [5] it was 0.144; in experiment [6] it was 0.206. Further, the “combination Emax” value in experiment [7] worked out at 0.269; in experiment [8], 0.211; in [9] it was 0.23; in experiment [10] it was 0.333; in experiment [11], 0.0745; in experiment [12] it was 0.0693. The “combination Emax” value in [13] was found to be 0.135; in experiment [14] it was 0.147; in [15], 0.16; in experiment [16], 0.0865; in experiment [17], 0.179; in [18], 0.201. Also, the “combination Emax” value in experiment [19] is 0.183.

Take `COc1cccc(OCCCN)c1-c1cc(Nc2cnc(C#N)cn2)n[nH]1` [Prexasertib] + O=C(c1cc(Cc2n[nH]c(=O)c3ccccc23)ccc1F)N1CCN(C(=O)C2CC2)CC1 [Olaparib] (first compound max 1 µM, 7x7, partner max 10 µM): the “combination Emax” value was found to be 0.848 in experiment [1]; 1 in experiment [2]; 0.37 in experiment [3]; 0.756 in experiment [4]; 0.169 in experiment [5]; 0.85 in experiment [6]. For the same compound, the “combination Emax” value in experiment [7] is 0.433; in experiment [8], 0.702; in experiment [9] it was 0.891; in experiment [10], 0.953; in experiment [11] it was 0.756; in [12], 0.983. Moreover, the “combination Emax” value in [13] amounted to 0.46; in experiment [14], 0.84; in [15] it was 0.285; in experiment [16], 0.536; in experiment [17], 0.733; in experiment [18], 1. In [19], the “combination Emax” value is 0.556.

Consider `Cc1cc2ncnn2cc1Nc1ncc2c(n1)n(C1CCOCC1)c(=O)n2C` [AZD7648] + C=CCn1c(=O)c2cnc(Nc3ccc(N4CCN(C)CC4)cc3)nc2n1-c1cccc(C(C)(C)O)n1 [AZD1775] (first compound max 10 µM, partner max 1 µM), for which the “combination Emax” value in experiment [1] was found to be 0.56; in [2] it was 1; in experiment [3], 0.303; in [4], 0.769; in [5] it was 0.27; in experiment [6], 0.813. Also, the “combination Emax” value in experiment [7] is 0.291; in experiment [8], 0.567; in experiment [9], 0.645; in experiment [10], 0.937; in [11] it was 0.764; in experiment [12] it was 0.778. Moreover, the “combination Emax” value in experiment [13] was found to be 0.668; in [14], 0.715; in [15] it was 0.462; in [16], 0.312; in experiment [17], 0.319; in experiment [18], 0.954. Further, the “combination Emax” value in [19] was 0.469.

Regarding `COc1cccc(OCCCN)c1-c1cc(Nc2cnc(C#N)cn2)n[nH]1` [Prexasertib] + Cc1cc2ncnn2cc1Nc1ncc2c(n1)n(C1CCOCC1)c(=O)n2C [AZD7648] (first compound max 1 µM, 7x7, partner max 10 µM), the “combination Emax” value in experiment [1] is 0.856; in [2] it was 1; in [3] it was 0.384; in experiment [4] it was 0.814; in experiment [5], 0.0565; in experiment [6], 0.844. Further, the “combination Emax” value was found to be 0.358 in [7]; 0.612 in experiment [8]; 0.948 in experiment [9]; 1 in [10]; 0.796 in experiment [11]; 0.974 in experiment [12]. Besides, the “combination Emax” value in experiment [13] came to 0.575; in [14] it was 0.87; in experiment [15], 0.344; in [16], 0.587; in experiment [17], 0.622; in [18], 1. The “combination Emax” value in experiment [19] was 0.59.

In the case of `Cc1cc2ncnn2cc1Nc1ncc2c(n1)n(C1CCOCC1)c(=O)n2C` [AZD7648] + C[C@@H]1COCCN1C2=NC(=NC(=C2)C3(CC3)[S@](=N)(=O)C)C4=C5C=CNC5=NC=C4 [AZD6738] (first compound max 10 µM, 7x7, partner max 10 µM), the “combination Emax” value in [1] came to 0.804; in [2] it was 1; in [3], 0.393; in experiment [4], 0.776; in experiment [5] it was 0.175; in experiment [6], 0.894. Further, the “combination Emax” value in [7] worked out at 0.323; in experiment [8], 0.468; in [9], 0.892; in experiment [10] it was 0.983; in [11], 0.636; in experiment [12], 0.867. Moreover, the “combination Emax” value in experiment [13] came to 0.514; in experiment [14] it was 0.696; in [15], 0.43; in experiment [16], 0.325; in experiment [17], 0.353; in experiment [18], 0.979. Further, the “combination Emax” value in [19] was 0.571.

Turning to `Cc1cc2ncnn2cc1Nc1ncc2c(n1)n(C1CCOCC1)c(=O)n2C` [AZD7648] + O=C(c1cc(Cc2n[nH]c(=O)c3ccccc23)ccc1F)N1CCN(C(=O)C2CC2)CC1 [Olaparib] (first compound max 10 µM, 7x7, partner max 10 µM), the “combination Emax” value in experiment [1] came to 0.178; in [2] it was 0.14; in experiment [3], 0.109; in [4], 0.529; in experiment [5], 0.132; in experiment [6], 0.26. Besides, the “combination Emax” value in experiment [7] turned out to be 0.253; in experiment [8], 0.41; in [9], 0.176; in experiment [10], 0.25; in experiment [11] it was 0.21; in experiment [12], 0.0923. Moreover, the “combination Emax” value was determined as 0.103 in experiment [13]; 0.322 in experiment [14]; 0.328 in experiment [15]; 0.102 in [16]; 0.185 in experiment [17]; 0.461 in experiment [18]. For the same compound, in experiment [19], the “combination Emax” value is 0.229.
